Experimental data taken from ChEMBL document CHEMBL5058564, “EUbOPEN Chemogenomics Library 2 (Incucyte)” (2022).

What was measured:
Type in all cases: toxicity, cell-based
HEK-293T = assay: Incucyte cell viability with HEK293T; conditions: human, 10 µM, compound concentration 10 uM
Fibroblast = assay: Incucyte cell viability with human fibroblast; conditions: 10 µM, compound concentration 10 uM
U2OS = assay: Incucyte cell viability with U2OS; conditions: human, 10 µM, compound concentration 10 uM
[1] = 0 h, replicate number 1, timepoint 0 hours
[2] = 0 h, replicate number 2, timepoint 0 hours
[3] = 6 h, replicate number 1, timepoint 6 hours
[4] = 12 h, replicate number 1, timepoint 12 hours
[5] = 12 h, replicate number 2, timepoint 12 hours
[6] = 18 h, replicate number 1, timepoint 18 hours
[7] = 18 h, replicate number 2, timepoint 18 hours
[8] = 24 h, replicate number 1, timepoint 24 hours
[9] = 24 h, replicate number 2, timepoint 24 hours
[10] = 6 h, replicate number 2, timepoint 6 hours
Further: unitless GR value; below 1 slowed growth and below 0 cell loss.

Compound	Growth Rate (HEK-293T; [2])	Growth Rate (HEK-293T; [3])	Growth Rate (HEK-293T; [4])	Growth Rate (HEK-293T; [5])	Growth Rate (HEK-293T; [6])	Growth Rate (HEK-293T; [7])	Growth Rate (HEK-293T; [8])	Growth Rate (Fibroblast; [2])	Growth Rate (U2OS; [2])	Growth Rate (U2OS; [3])	Growth Rate (U2OS; [4])	Growth Rate (U2OS; [6])	Growth Rate (Fibroblast; [3])	Growth Rate (Fibroblast; [4])	Growth Rate (Fibroblast; [6])	Growth Rate (Fibroblast; [8])	Growth Rate (U2OS; [1])	Growth Rate (U2OS; [5])	Growth Rate (U2OS; [7])	Growth Rate (U2OS; [9])	further results
COc1cc2nc(N3CCN(C(=O)C4CCCO4)CC3)nc(N)c2cc1OC.Cl.O.O (stereo not drawn) [TERAZOSIN HYDROCHLORIDE]	0.29	0.91	0.69	0.83	0.78	0.79	0.87	0.43	0.74	0.56	0.73	0.88									Growth Rate (HEK-293T; [1]): 0.72; Growth Rate (HEK-293T; [9]): 0.79; Growth Rate (Fibroblast; [1]): 0.68; Growth Rate (Fibroblast; [10]): 0.32; Growth Rate (Fibroblast; [5]): 0.84; Growth Rate (Fibroblast; [7]): 0.8; Growth Rate (Fibroblast; [9]): 0.57; Growth Rate (U2OS; [10]): 0.76; Growth Rate (U2OS; [8]): 0.99
COc1cc(Nc2ncc3c(n2)-c2ccc(Cl)cc2C(c2c(F)cccc2OC)=NC3)ccc1C(=O)O [ALISERTIB]		-0.03	0.13	0	0.39	0.33	0.38	0.68	0.41	0.83	0.43	0.19	-0.97	-0.79	-0.64	-0.39	-0.14	0.54	0.45	0.65	Growth Rate (HEK-293T; [10]): 0.03; Growth Rate (HEK-293T; [9]): 0.26; Growth Rate (Fibroblast; [10]): -0.09; Growth Rate (Fibroblast; [5]): -0.17; Growth Rate (Fibroblast; [7]): -0.13; Growth Rate (Fibroblast; [9]): -0.09; Growth Rate (U2OS; [8]): 0.39
O=c1nc2[nH]c3ccccc3nc-2c(=O)[nH]1 [ALLOXAZINE]	0.68		0.97		0.81		0.9	0.73	-1				0.04				0.16		0.95		Growth Rate (Fibroblast; [1]): -0.4
COc1ccc2[nH]cc(CCNC(C)=O)c2c1 [MELATONIN]	0.8	0.93					0.94	0.06	0.55										0.85	0.97	Growth Rate (HEK-293T; [1]): 0.52; Growth Rate (Fibroblast; [1]): 0.91
O=C(O)c1ccccc1S(=O)(=O)NCCCCN1C(=O)c2cccc3cccc(c23)C1=O	0.31		0.9	0.98	0.82	0.89	0.91	0.58	-0.33	0.57	0.82	0.78			0.79		0.34	0.64	0.75	0.75	Growth Rate (HEK-293T; [1]): 0.54; Growth Rate (Fibroblast; [1]): 0.28; Growth Rate (Fibroblast; [10]): 0.71; Growth Rate (Fibroblast; [5]): 0.94; Growth Rate (U2OS; [10]): 0.12; Growth Rate (U2OS; [8]): 0.67
Cl.Cl.OCCOCCN1CCN(C(c2ccccc2)c2ccc(Cl)cc2)CC1 (stereo not drawn) [HYDROXYZINE HYDROCHLORIDE]		0.77	0.52	0.45	0.19	0.39	0.04	0.31	-1	0.46			0.49	0.82	0.88	0.77					Growth Rate (HEK-293T; [10]): 0.15; Growth Rate (HEK-293T; [9]): 0.32
NC(=O)c1ccc(CNC(=O)NC[C@H]2CN(Cc3ccc(Cl)c(Cl)c3)CCO2)cc1	0.54	0.47	0.86		0.88	1	0.88		0.11	0.32	0.8	0.91									Growth Rate (HEK-293T; [9]): 0.8; Growth Rate (Fibroblast; [1]): 0.21
CC(C)Cc1ccc([C@@H](C)C(=O)NS(C)(=O)=O)cc1 [REPARIXIN]	0.48		0.78		0.7	0.83	0.82		-1				0.51	0.63	0.6	0.06	-0.7	0.88	0.86	0.93	Growth Rate (Fibroblast; [10]): -0.08; Growth Rate (Fibroblast; [5]): 0.66; Growth Rate (Fibroblast; [7]): 0.65; Growth Rate (Fibroblast; [9]): 0.95; Growth Rate (U2OS; [10]): 0.83
Cc1ccccc1C(=O)Nc1ccc(C(=O)N2CCCC(N(C)C)c3ccccc32)cc1.Cl (stereo not drawn)		-0.55	-0.32	-0.03	-0.11	0.08	0.1			0.05	-0.03	-0.06	-0.99	-0.85	-0.63	-0.44	0.36	-0.22	-0.09	-0.08	Growth Rate (HEK-293T; [10]): -0.44; Growth Rate (HEK-293T; [9]): 0.22; Growth Rate (Fibroblast; [10]): -0.65; Growth Rate (Fibroblast; [5]): -0.38; Growth Rate (Fibroblast; [7]): -0.1; Growth Rate (Fibroblast; [9]): 0.07; Growth Rate (U2OS; [10]): -0.11; Growth Rate (U2OS; [8]): -0.11
Cc1cc(-c2ccc3c(c2)CC[C@H]3N2CC3(CCN(C(=O)Cc4cn5cc(C)sc5n4)CC3)C2)ncn1 [PF-5190457]	0.77				0.98			0.62	-0.98			0.94	-0.34	0.22	0.37	0.57		0.99			Growth Rate (Fibroblast; [5]): 0.88
Cc1cc(NC(=O)NCCN2CCC(O)(Cc3ccccc3)CC2)c2ccccc2n1 [PALOSURAN]	-1	0.95	0.83					0.27	0.13	0.57	0.33	0.73	-0.3	0.72	0.32	0.22	0.34		0.98		Growth Rate (HEK-293T; [1]): 0.55; Growth Rate (U2OS; [10]): 0.73; Growth Rate (U2OS; [8]): 0.87
CSc1nc(NC2CCCC2)c([N+](=O)[O-])c(NC2CCCC2)n1 [GS-39783]	0.78		0.97	0.85		0.92		0.9	-1				-0.14	-0.14	0.18	0.19	0.05	0.75	0.75	0.92	Growth Rate (HEK-293T; [1]): 0.5; Growth Rate (Fibroblast; [10]): 0.69; Growth Rate (U2OS; [10]): 0.83
COc1ccc2cc(S(=O)(=O)N[C@H](CC(=O)N[C@H](Cc3ccc(CN4[C@H](C)CCC[C@@H]4C)cc3)C(=O)N(C)C(C)C)c3ccc4c(c3)OCO4)ccc2c1.Cl		-0.08	0.01	0.35	0.02	0.41	0.01	-0.08	-0.35	0.84	0.63	0.67	-0.65	-0.6	-0.65	-0.57		0.61	0.57	0.53	Growth Rate (HEK-293T; [9]): 0.42; Growth Rate (Fibroblast; [10]): -0.35; Growth Rate (Fibroblast; [5]): -0.1; Growth Rate (Fibroblast; [7]): -0.15; Growth Rate (Fibroblast; [9]): -0.02; Growth Rate (U2OS; [8]): 0.69
CC1=C(C)C(=O)C(C(C)(C)CC(=O)N(CCCCSC[C@H]2O[C@@H](n3cnc4c(N)ncnc43)[C@@H]3OC(C)(C)O[C@@H]32)Cc2cccc(-c3ccc(Cl)cc3)c2)=C(C)C1=O	0.07		0.85	0.97		0.94	0.96	0.08			0.3	0.49					-0.32	0.93	0.87	0.92	Growth Rate (HEK-293T; [1]): 0.72; Growth Rate (Fibroblast; [1]): 0.04; Growth Rate (U2OS; [8]): 0.63
